# Measured values from article PMC3943701 (Biochimica et biophysica acta, 2013).
# “Also recorded” adds a separate entry of the source. Like-named read-outs stand apart in the source and are kept apart here.
# Tests used:
# M2 His37 = settings: addition of amantadine; ref [17]; cited from earlier work
# influenza A/M2 protein = settings: sensitive circulating influenza strains; ref [2], [3]; cited from earlier work
# [1] = tested on: M2(19–62) wild type construct; format: biochemical, influenza A virus (A/Udorn/72); settings: liposomes pre-mixed with amantadine HCl 3 h, 18°C
# [2] = tested on: M2(19–62) thiazolylalanine construct; format: biochemical, influenza A virus (A/Udorn/72); settings: pH 2.4
# [3] = in solution, no reference given, cited from earlier work
SMILES,"effect on His37 ring flip, protonation and deprotonation (in words) (M2 His37)",inhibition of M2 proton transport (in words) (influenza A/M2 protein),inhibitory effect of amantadine on flux (in words) ([1]; bathing buffer pH 2.4),amantadine sensitivity of flux (in words) ([1]; bathing buffer pH 7.4 and 4.9),amantadine inhibition of currents (in words) [2],solution pKa of side chain [3],solution pKa of side chain ([3]; listed as imidazole)
NC12CC3CC(CC(C3)C1)C2 [amantadine],significantly inhibited,inhibited,No inhibitory effect; also recorded: begins to be lost,amantadine-sensitive,robust amantadine inhibition,–,–
N[C@@H](Cc1c[nH]cn1)C(=O)O [histidine],–,–,–,–,–,6.5,~ 6.5
CC(N)C12CC3CC(CC(C3)C1)C2 (centres unmarked) [rimantadine],–,inhibited,–,–,–,–,–
